Compared with `O=C(NNC(c1ccccc1)(c1ccccc1)c1ccccc1)c1ccccc1`, `O=C1NC(=O)C(c2ccccc2)(c2ccccc2)N2CCN(C(=O)OCc3ccccc3)CC12` (stereo unspecified) is higher in melting point: 130 to 131 °C for the first, 151 to 152 °C for the second.

First: Oc1ccc(N2CCN(c3nccs3)CC2)cc1
Second: c1cnc(N2CCN(Cc3ccc4c(c3)Cc3c(-c5ccsc5)n[nH]c3-4)CC2)nc1
The melting point of the first is lower: 170 °C for the first, 245 to 247 °C for the second.

First: CC(=NO)c1ccc(OCc2ccccc2)c(CCCc2ccc(C(=O)NCCO)cc2)c1
Second: Cc1nc2c(N)nc3ccc(OCc4ccccc4)cc3c2n1CCCCNC(=O)c1ccccc1
The melting point of the first is lower: 131 to 132 °C for the first, 244 to 245 °C for the second.

Compared with `CCOCc1nc2c(N)nc3cc(OCCOCc4ccccc4)ccc3c2n1CC(C)(C)O`, `CCCCc1nc2c(N)nc3ccccc3c2n1CCCCCCCCNC(=O)c1ccccc1` is higher in melting point: 131 to 132 °C for the first, 150 to 151 °C for the second.

First: O=C1c2ccccc2OCC1Br (stereo unspecified)
Second: O=C1NC(=O)C(c2ccccc2Cl)O1 (stereo unspecified)
The melting point of the first is lower: 48 to 51 °C for the first, 106 to 108 °C for the second.

First: N#Cc1cc(Br)c(OC(=O)OCI)c(Br)c1
Second: CCCCNc1nc(C)c(C#N)cc1C(=O)OCC
The melting point of the first is higher: 103 to 105 °C for the first, 61 to 63 °C for the second.

Compared with `CCOC(=O)c1c(C(F)(F)F)nc(C(F)(F)F)c(C)c1OC(C)=O`, `O=C(O)c1cccc2nc(C(F)(F)C(F)(F)C(F)(F)F)n(Cc3ccccc3Cl)c12` is higher in melting point: 49 to 51 °C for the first, 213 to 214 °C for the second.

First: CCCCCCCCCCOc1ccc(OCc2ccccc2)c(C(=O)OC)c1
Second: OCc1cc(OCc2ccccc2)c(OCc2ccccc2)cn1
The melting point of the first is lower: 32 to 34 °C for the first, 96.6 °C for the second.

`COC(=O)C1(CCCCl)Oc2ccccc2CCC1O` (stereo unspecified) and `Cc1c(CC(=O)O)oc2ccccc12` cannot be ordered by melting point: 107 to 109 °C for the first, 108 °C for the second.

Compared with `N#CN1CCC(c2nn(-c3ccc(C(F)(F)F)cc3)c3ccccc23)CC1`, `O=C(Nc1ccc(C(F)(F)F)cc1)c1ccc(C=NO)cc1` is higher in melting point: 135 to 136 °C for the first, 221 to 222 °C for the second.

Compared with `CC(C)c1nn(-c2ncc(C(F)(F)F)cn2)cc1CCCO`, `Cn1nc(-c2c(F)cccc2Cl)nc1-c1ccc(COc2ncc(C(F)(F)F)cc2Cl)c(Cl)c1` is lower in melting point: 98 to 99 °C for the first, 47 to 49 °C for the second.

First: O=C(c1ccccc1)c1cccc2c(CC(C(=O)O)C(=O)O)c[nH]c12
Second: O=C(O)CNC(=O)C(NC(=O)c1ccccc1)SC(=O)c1ccccc1 (stereo unspecified)
The melting point of the first is higher: 188 to 189 °C for the first, 162 to 164 °C for the second.

First: COC(=O)NC12CC=CCC1CCc1ccc(OC)cc12 (stereo unspecified)
Second: COc1cc2c(c(OC)c1)C(=O)CCC2
The melting point of the first is higher: 120 to 122 °C for the first, 58 to 61 °C for the second.

Compared with `Nc1ccc(OC(F)(F)F)cc1`, `Cc1nc(N2CCN(Cc3ccc(OC(F)(F)F)cc3)C2=O)sc1C(=O)Nc1ccccc1` is higher in melting point: 63.5 °C for the first, 187 to 188 °C for the second.

First: COc1cc2ncc(C#N)c(C)c2cc1OCc1ccccc1
Second: COc1c(C)c(C)cc(C)c1C(O)(c1ccccc1)C(C)C (stereo unspecified)
The melting point of the first is higher: 165 to 172 °C for the first, 80 to 81 °C for the second.

First: Cc1oc(-c2ccccc2)nc1CCOc1ccc(CC(C(=O)O)C(=O)N(C)C)cc1 (stereo unspecified)
Second: Cc1oc(-c2ccccc2)nc1COc1ccc(CSc2nc(CCC(=O)O)n[nH]2)cc1
The melting point of the first is lower: 48.5 to 49.7 °C for the first, 170 to 171 °C for the second.

`CN1CCN(Cc2ccc(Cl)cc2Cl)C(C2=NCCN2)C1` (stereo unspecified) and `O=C1OCCN1CCN1CCN(C2Cc3ccc(Cl)cc3Sc3cc(F)ccc32)CC1` (stereo unspecified) cannot be ordered by melting point: 167 to 169 °C for the first, 168 to 170 °C for the second.

Compared with `COc1ccc(CNc2nnc(Cl)c3cc([N+](=O)[O-])ccc23)cc1Cl`, `Cc1ccc([N+](=O)[O-])cc1Nc1cccc(Br)c1` is lower in melting point: 179 to 180 °C for the first, 114 to 116 °C for the second.

First: O=C(O)c1cn(C2CC2)c2c(F)c(N3CCC(n4cnnn4)C3)c(F)cc2c1=O (stereo unspecified)
Second: CC(C)C(=O)N1CCC(c2nc3cc(-c4ccc(-n5cnnn5)cc4F)ccc3o2)CC1
The melting point of the first is higher: 268 to 270 °C for the first, 190 to 194 °C for the second.

First: Cc1cccc2c1nc(-c1ccccc1Cl)n2CC(C)O (stereo unspecified)
Second: Clc1ccc2c(Nc3ccccc3)ccnc2c1
The melting point of the first is lower: 164 to 165 °C for the first, 207 °C for the second.

First: CSc1nc(-c2cc(C(C)(C)C)c(O)c(C(C)(C)C)c2)c(-c2ccccc2)[nH]1
Second: Cc1ccc(Sc2cc(C(C)(C)C)c(O)c(C(=O)O)c2C)cc1
The melting point of the first is lower: 129 to 131 °C for the first, 163 to 164 °C for the second.

Compared with `CCC(CC)n1nnc2c([N+](=O)[O-])cccc21`, `CCc1nc2cc(Cn3ccnc3)ccc2n1C` is lower in melting point: 129 to 132 °C for the first, 127 °C for the second.

First: COc1cc2ncnc(N3CCNCC3)c2cc1OC
Second: COc1ccc(C2CNC(=O)O2)cc1OC (stereo unspecified)
The melting point of the first is higher: 178 to 179 °C for the first, 114 to 117 °C for the second.

First: CCc1nc2c(cnn2CC)c(NC2CCOCC2)c1CNC(=O)c1cc(C)cc(C(=O)NCc2ccc(Cl)c(Br)c2)c1
Second: COc1c(C2CCN(CCCCNC(=O)c3ccc(-c4ccc(Cl)cc4)nc3)CC2)ccc2c1CCCC2
The melting point of the first is higher: 212 to 214 °C for the first, 184 to 186 °C for the second.

First: CCCc1c(OCCCOc2ccc(-c3cc[nH]n3)c(OC)c2CCC)ccc2c1OC(C(=O)O)CC2 (stereo unspecified)
Second: Cc1cc(SCc2cc(-c3ccc(C(F)(F)F)cc3)on2)c(Cl)cc1OCC(=O)O
The melting point of the first is higher: 156 to 158 °C for the first, 120 to 121 °C for the second.

First: COC(=O)c1cccc(-c2nc(COc3ccc(CO)cc3)c(C)o2)c1
Second: COCCNC(=O)c1cccc(-c2cccc3cc(Cc4cc(F)ccc4F)sc23)c1
The melting point of the first is higher: 105 to 106 °C for the first, 92 to 94 °C for the second.

First: N#CCCNC(=O)c1cccc(-c2ccc3c(c2)N(CCc2cccc(C(F)(F)F)c2)CC3)c1
Second: Cc1cc(C)cc(-c2cn(C)cc(-c3cccc(C(F)(F)F)c3)c2=O)c1
The melting point of the first is higher: 197 to 198 °C for the first, 160 to 163 °C for the second.

First: COC(N)=CC(=NC#N)OC
Second: COC(=O)C(=NO)c1nc2cc(Cl)ccc2oc1=O
The melting point of the first is lower: 116 to 121 °C for the first, 176 to 177 °C for the second.

First: CCSc1cc(=O)c2c(O)cc(OC)c(C3CCN(C)CC3O)c2o1 (stereo unspecified)
Second: COc1cc(N)c(Cl)cc1C(=O)NCC1CCN(CCOCc2ccccc2)CC1
The melting point of the first is lower: 60 °C for the first, 123 to 125 °C for the second.

First: CN1CCCCC1CNC(=O)Nc1cc(OCC(F)(F)F)ccc1OCC(F)(F)F (stereo unspecified)
Second: CCN(CCO)C(=O)C1=C(C(=O)Nc2cc(OC3CCCC3)c(Cl)cc2F)CCCC1
The melting point of the first is lower: 123 to 126 °C for the first, 132 to 133 °C for the second.

First: Nc1cc(Sc2ccc3c(C(=O)Nc4ccc(F)c(C(F)(F)F)c4)cccc3c2)ncn1
Second: Cc1cc(-c2cnn3c(C(F)(F)F)cc(-c4ccc(C(F)(F)F)c(F)c4)nc23)ccn1
The melting point of the first is lower: 221 °C for the first, 250 °C for the second.

First: CC(C)(C)OC(=O)NC1CCC(C(=O)N2CCC(c3[nH]nc4c3C(=O)c3c(NC(=O)NN5CCOCC5)cccc3-4)CC2)CC1 (stereo unspecified)
Second: O=C(Nc1ccc(Oc2ccnc(N3CCC(O)CC3)n2)c2ccccc12)c1cc(F)cc(N2CCCCC2)c1
The melting point of the first is lower: 178 to 180 °C for the first, 182 to 184 °C for the second.

First: CN1CN=C2C=C(Nc3ccc(I)cc3F)C(F)(C(N)=O)C=C21 (stereo unspecified)
Second: Cc1cn(-c2ccc(N3C[C@H](CO)OC3=O)cc2F)nn1
The melting point of the first is higher: 265 to 268 °C for the first, 190 to 192 °C for the second.

First: Cc1cc(-c2coc3c(-c4ccc(F)cc4)c(-c4ccc(S(C)(=O)=O)cc4)nn23)ccc1Cl
Second: Cc1c(NC(=O)c2ccc(-c3ccccc3)cc2F)ccc2cc(CN3CCCCCC3)cnc12
The melting point of the first is higher: 202 to 205 °C for the first, 151 to 153 °C for the second.

First: NC(=O)c1c(C(F)(F)F)oc2cc(O)ccc2c1=O
Second: O=C(O)C1=Cc2cc(F)cc(Cl)c2OC1C(F)(F)F (stereo unspecified)
The melting point of the first is higher: > 310 °C for the first, 240 to 241 °C for the second.

First: CC=CN1C(=O)CN(c2ccccc2)C1=S
Second: CC1(c2cccc(N)c2)C2CN(Cc3ccccc3)C(=O)C21 (stereo unspecified)
The melting point of the first is lower: 74 °C for the first, 150 to 151 °C for the second.

First: NC(=O)c1sc2nccc(N3CCCC3)c2c1N
Second: CC(=CC(=O)c1cccs1)N1CCCC1
The melting point of the first is higher: 275 to 283 °C for the first, 154 to 156 °C for the second.

First: Cc1cnc(CCCCNc2ncc(Cc3ccc(C)nc3)c(=O)[nH]2)c(N)c1
Second: Cc1cc(C)nc(NC(=O)Cc2c(Cl)sc3ccccc23)c1
The melting point of the first is lower: 86 to 89 °C for the first, 123 to 124 °C for the second.

First: CC1Cc2c(c(Cl)cc(F)c2N2C(=O)C3=C(CCCC3)C2=O)O1 (stereo unspecified)
Second: CN1C(=O)N(c2cc(Cl)cc(Cl)c2)C(=O)[C@]12CN(Cc1ccccc1)C[C@H]2c1ccc(-c2cncnc2)cc1 (relative stereo)
The melting point of the first is lower: 169 to 171 °C for the first, 228 °C for the second.

First: C=C(Cc1ccccc1)C(=O)N[C@@H](CC(C)C)C(=O)O
Second: CCOC(=O)c1nc2scc(NC(=O)Cc3ccccc3)c2c(=O)[nH]1
The melting point of the first is lower: 56 to 60 °C for the first, 237 °C for the second.

`CC(C)(C)c1cccc(C(=O)O)c1` and `CC(=O)C(C#N)c1cccc(Cl)c1` (stereo unspecified) cannot be ordered by melting point: 96 to 97 °C for the first, 92 to 97 °C for the second.

Compared with `CCn1ncnc1COc1nn2c(-c3c(F)ccc(F)c3F)nncc2c1C(C)(C)C`, `CCOC(=O)c1nc(-c2ccc(Cl)cc2)c(F)c(N)c1Cl` is higher in melting point: 42 °C for the first, 103 to 104 °C for the second.

First: Oc1ccc(CCc2cc(O)c(O)c(O)c2)cc1
Second: Oc1cccc(C#Cc2ccc3ccc(Br)cc3n2)c1
The melting point of the first is lower: 180 to 188 °C for the first, 197 to 199 °C for the second.

First: COC1(OCC#Cc2ccc(Cl)nc2)C=CC=NC1 (stereo unspecified)
Second: S=C(Nc1ccc(Br)cn1)N[C@@H]1C[C@@H]1c1ccccc1
The melting point of the first is lower: 100 to 101 °C for the first, 192 to 193 °C for the second.

First: O=C1OC(Cc2ccc([N+](=O)[O-])cc2)C(=O)N1Cc1ccccc1 (stereo unspecified)
Second: CN(CCCCN1C(=O)C=CC1=O)c1ccccc1
The melting point of the first is higher: 92 to 93 °C for the first, 66 to 67 °C for the second.

First: CN(Cc1ccccc1)c1ncnc2c(N3CCOCC3)nc(N3CCC(NCc4ccccc4)CC3)nc12
Second: COc1ccc(OCC(O)CN2CCC(c3noc4cc(F)ccc34)CC2)cc1 (stereo unspecified)
The melting point of the first is lower: 103 to 106 °C for the first, 134 to 135 °C for the second.

Compared with `CCOC(=O)CNC(=O)Cn1c(-c2cccc(Cl)c2)nc2cccnc21`, `CCCN(CCC)C(=O)Cc1c(-c2ccc(Cl)cc2)nn2cccnc12` is lower in melting point: 144 to 145 °C for the first, 104 to 106 °C for the second.

First: Cc1nccnc1OCC1COC(C)(C)O1 (stereo unspecified)
Second: CCNC(=O)Nc1nc2cc(-c3c(C)noc3C)cc(C(=O)NCC)n2n1
The melting point of the first is lower: 77 to 78 °C for the first, 238 to 241 °C for the second.

First: CC1(C)CC(NCCNCCNC2CC(C)(C)N(O)C(C)(C)C2)CC(C)(C)N1O
Second: CC(=O)Nc1ccc(SC2SCC(O)C(O)C2O)cc1 (stereo unspecified)
The melting point of the first is lower: 118 to 124 °C for the first, 226 to 233 °C for the second.

Compared with `COc1cc(OCCn2cccc2)ccc1/C=C/c1cc(/C=C/c2ccc3cc[nH]c3c2)n[nH]1`, `COc1ccc2c(c1)C(c1ccc(N)cc1)=NN(C(=O)C1CC1)C(C)=C2` is higher in melting point: 102 to 110 °C for the first, 214 to 216 °C for the second.

Compound `CCOC(=O)/C(=N\OCc1ccccc1)c1csc(N)n1` has a melting point of 133 to 134 °C.
